From patent publication US20170252350A1, “SMALL MOLECULE IRE1-ALPHA INHIBITORS” (Cornell University, priority 2016, published 2017)
Several values for one entry are separate records, joined by “and”; a condition that tells them apart may be missing. Equal values may be shown once.

Key:
IRE1α = biological target: T1, IRE1α (Homo sapiens, UniProt O75460); assay: In vitro FRET assay of IRE1α endoribonuclease activity (XBP1 RNA hairpin probe); assay type: biochemical; conditions: SignalChem IRE1α protein 2 nM, fluorescence read over 30 minutes
T1 construct: purchased SignalChem
Source text: To evaluate potential small molecule IRE1 inhibitors, a Förster resonance energy transfer (FRET)-based small molecule IRE1 screening system was used. In brief, a small XBP1-mimetic RNA hairpin containing sequence features required for IRE1α-mediated splicing has been synthesized with the fluorophore 6FAM attached to the 5′ end and the quenching dye Black Hole Quencher 1 (BHQ1) attached to the 3′ end. When the hairpin is intact, 6FAM fluorescence is completely absorbed by BHQ1; however, IRE1α-mediated cleavage of the RNA hairpin leads to an increase in the fluorescence signal. The inventors also incorporated a point mutant version of this same RNA hairpin that is resistant to IRE1α-mediated cleavage to control for non-specific RNAse contamination (FIG. 2).
To perform the in vitro FRET assay, 1× complete assay buffer (CAB; […], 50 mM sodium citrate pH 7.15, 1 mM magnesium acetate, 0.02% tween 20) was used to dilute SignalChem IRE1α protein to a final concentration of 2 nM. Selected compounds were serially diluted with DMSO in a non-binding black 384-well plate for a total of 15 μl in each well. 2 μl of the serially diluted compound or DMSO control were then added to new wells containing 98 μl of 1×CAB, for a total volume of 100 μl, 10 μl of which were then transferred to wells of a new plate. 5 μof the diluted IRE1α was then added to each well. 5 μl of a […] XBP1 RNA probe was then added to each well. Fluorescence was then read over 30 minutes in kinetic mode (485/515 nm).
Two RNA probes were used, XBP1 wildtype (CAUGUCCGCAGCACAUG; SEQ ID NO: 1) which is able to be spliced by active IRE1α or XBP1 mutant (CAUGUCCCCAGCACAUG; SEQ ID NO: 2) which is unable to be spliced. Each probe contained a 5′ 6-FAM modification and a 3′ IOWA Black FQ modification, […]

myeloid dendritic cells = assay: Lipid accumulation (BODIPY 493/503) in myeloid dendritic cells exposed to ovarian cancer ascites supernatants; assay type: cell-based, mouse
Source text: FIG. 1D is flow cytometry analysis of lipid accumulation in mouse bone marrow-derived dendritic cells exposed to the indicated treatments, measured by BODIPY 493/503 staining intensity. Both raw data and quantified geometric mean fluorescence intensity (MFI) are shown.

T1 sequence (O75460 19-977): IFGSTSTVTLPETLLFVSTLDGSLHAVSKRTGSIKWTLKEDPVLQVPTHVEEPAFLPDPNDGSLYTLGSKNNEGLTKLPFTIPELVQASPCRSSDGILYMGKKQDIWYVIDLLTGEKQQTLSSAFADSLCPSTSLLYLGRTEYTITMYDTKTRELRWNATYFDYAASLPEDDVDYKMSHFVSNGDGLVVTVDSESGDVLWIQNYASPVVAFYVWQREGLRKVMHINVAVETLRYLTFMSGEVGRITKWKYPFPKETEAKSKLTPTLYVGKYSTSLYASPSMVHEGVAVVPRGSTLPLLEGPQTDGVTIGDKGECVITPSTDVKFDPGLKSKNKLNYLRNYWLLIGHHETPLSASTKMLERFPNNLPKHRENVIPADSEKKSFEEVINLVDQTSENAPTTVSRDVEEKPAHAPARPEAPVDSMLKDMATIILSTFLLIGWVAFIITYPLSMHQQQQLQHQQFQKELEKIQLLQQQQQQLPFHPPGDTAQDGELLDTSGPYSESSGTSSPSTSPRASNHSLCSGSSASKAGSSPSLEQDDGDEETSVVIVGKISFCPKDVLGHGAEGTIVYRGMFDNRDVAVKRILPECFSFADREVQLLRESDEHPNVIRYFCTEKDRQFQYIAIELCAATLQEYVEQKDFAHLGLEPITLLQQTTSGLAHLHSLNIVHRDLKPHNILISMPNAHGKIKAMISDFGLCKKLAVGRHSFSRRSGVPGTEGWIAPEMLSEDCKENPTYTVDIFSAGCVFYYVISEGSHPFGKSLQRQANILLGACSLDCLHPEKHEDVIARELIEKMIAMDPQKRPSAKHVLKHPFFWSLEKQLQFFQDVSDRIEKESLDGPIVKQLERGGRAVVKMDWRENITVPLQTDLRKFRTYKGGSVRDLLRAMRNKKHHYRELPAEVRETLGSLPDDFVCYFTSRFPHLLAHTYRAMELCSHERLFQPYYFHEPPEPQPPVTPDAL

Compound	EC50 (IRE1α)	intracellular lipid accumulation (myeloid dendritic cells)
CN1CCN(Cc2ccc(NC(=O)Nc3cc(C#Cc4cccnc4)n(C)n3)cc2C(F)(F)F)CC1 [Compound A1]	≤ 5 µM	–
CN1CCN(Cc2ccc(NC(=O)Nc3cc(C#Cc4ccc(N)nc4)n(C)n3)cc2C(F)(F)F)CC1 [Compound A2]	≤ 5 µM	–
CN1CCN(Cc2ccc(NC(=O)Nc3cc(C#Cc4cnc5cccnn45)n(C)n3)cc2C(F)(F)F)CC1 [Compound A3]	≤ 5 µM	–
CN1CCN(Cc2ccc(NC(=O)Nc3cc(C#Cc4cnc5ccccn45)n(C)n3)cc2C(F)(F)F)CC1 [Compound A4]	≤ 5 µM	–
CN1CCN(Cc2ccc(NC(=O)Nc3cc(C#Cc4cnc5cnccn45)n(C)n3)cc2C(F)(F)F)CC1 [Compound A5]	≤ 5 µM	–
CN1CCN(Cc2ccc(NC(=O)Nc3cc(C#Cc4cncc5nccn45)n(C)n3)cc2C(F)(F)F)CC1 [Compound A6]	≤ 5 µM	–
CN1CCN(Cc2ccc(NC(=O)Nc3cc(C#Cc4ccnc(N)c4)n(C)n3)cc2C(F)(F)F)CC1 [Compound A7]	5 to 50 µM	–
COc1cc(C#Cc2cc(NC(=O)Nc3ccc(CN4CCN(C)CC4)c(C(F)(F)F)c3)nn2C)ccn1 [Compound A8]	≤ 5 µM and 5 to 50 µM	–
CN1CCN(Cc2ccc(NC(=O)Nc3cc(C#Cc4cnc(N)cn4)n(C)n3)cc2C(F)(F)F)CC1 [Compound A9]	≤ 5 µM	–
CN1CCN(Cc2ccc(NC(=O)Nc3cc(C#Cc4ccncc4)n(C)n3)cc2C(F)(F)F)CC1 [Compound A10]	≤ 5 µM	–
CN1CCN(Cc2ccc(NC(=O)Nc3cc(C#Cc4cc(N)[nH]n4)n(C)n3)cc2C(F)(F)F)CC1 [Compound A11]	≤ 5 µM	–
CN1CCN(Cc2ccc(NC(=O)Nc3cc(C#Cc4cn[nH]c4)n(C)n3)cc2C(F)(F)F)CC1 [Compound A12]	≤ 5 µM	–
CN1CCN(Cc2ccc(NC(=O)Nc3cc(C#Cc4cncn4C)n(C)n3)cc2C(F)(F)F)CC1 [Compound A13]	≤ 5 µM	–
CN1CCN(Cc2ccc(NC(=O)Nc3cc(C#Cc4n[nH]c5cccnc45)n(C)n3)cc2C(F)(F)F)CC1 [Compound A14]	≤ 5 µM	–
CN1CCN(Cc2ccc(NC(=O)Nc3cc(C#Cc4cc[nH]c(=O)c4)n(C)n3)cc2C(F)(F)F)CC1 [Compound A15]	5 to 50 µM	–
CN1CCN(Cc2ccc(NC(=O)Nc3cc(C#Cc4ccccn4)n(C)n3)cc2C(F)(F)F)CC1 [Compound A16]	≤ 5 µM	–
CN1CCN(Cc2ccc(NC(=O)Nc3cc(C#Cc4ccc(C#N)nc4)n(C)n3)cc2C(F)(F)F)CC1 [Compound A17]	≤ 5 µM	–
CN1CCN(Cc2ccc(NC(=O)Nc3cc(C#Cc4ccc(N)cc4)n(C)n3)cc2C(F)(F)F)CC1 [Compound A18]	50 to 100 µM	–
CN1CCN(Cc2ccc(NC(=O)Nc3cc(C#Cc4cnccn4)n(C)n3)cc2C(F)(F)F)CC1 [Compound A19]	≤ 5 µM	–
Cn1nc(NC(=O)Nc2cccc(C(F)(F)F)c2)cc1C#Cc1ccc(N)nc1 [Compound A20]	≤ 5 µM	–
CN1CCN(Cc2ccc(NC(=O)Nc3cc(C#Cc4cncc(N)c4)n(C)n3)cc2C(F)(F)F)CC1 [Compound A21]	≤ 5 µM	–
Cn1nc(NC(=O)Nc2ccc(CN3CCN(CCO)CC3)c(C(F)(F)F)c2)cc1C#Cc1ccc(N)nc1 [Compound A22]	≤ 5 µM	–
CN1CCN(Cc2ccc(NC(=O)Nc3nnc(C#Cc4ccc(N)nc4)s3)cc2C(F)(F)F)CC1 [Compound A23]	≤ 5 µM	–
Cn1nc(NC(=O)Nc2ccc(CN3CCCCC3)c(C(F)(F)F)c2)cc1C#Cc1ccc(N)nc1 [Compound A24]	5 to 50 µM	–
Cn1nc(NC(=O)Nc2ccc(CN3CCOCC3)c(C(F)(F)F)c2)cc1C#Cc1ccc(N)nc1 [Compound A25]	5 to 50 µM	–
vitamin E	–	suppressed
